Test results from patent US11116748B2, “Compositions and methods for reducing weight gain” (THE MEDICAL COLLEGE OF WISCONSIN, INC., priority 2018, dated 2021).

Columns and labels:
[1] = test system: C57bl/6J female mice; experiment: Supplementation with L. reuteri (daily gavage) with or without risperidone in drinking water: body mass and visceral fat pads; format: in vivo; details: risperidone-treated mice, 64 days, relative to risperidone plus L. reuteri lacking reutericyclin production; Wilcoxon p<0.05
[2] = test system: gut microbiome; details: risperidone; cited from earlier work
[3] = test system: C57bl/6J female mice; experiment: Risperidone treatment for 60 days, weight gain in mice; format: in vivo; details: risperidone for 60 days, vs control
Method: Shotgun metagenomic sequencing data (MiSeq, 2×250, high yield) from stool DNA were analyzed on the Anvi'o visualization platform. Bacterial genomes were refined to either genus or species level and ordered as slices within a ring by gene similarity (hierarchical clustering with a Hidden Markov Model).

SMILES	weight gain (body mass increase) [1]	growth of organisms under anaerobic conditions [2]	weight gain [3]
CCCCCCC/C=C/C(=O)N1C(O)=C(C(C)=O)C(=O)[C@H]1CC(C)C [reutericyclin, (5R)-1-(2-decenoyl)-2-hydroxy-3-acetyl-5-isobutyl-Δ2-pyrroline-4-one]	prevents weight gain		
Cc1nc2n(c(=O)c1CCN1CCC(c3noc4cc(F)ccc34)CC1)CCCC2 [risperidone]		selectively suppressed growth of organisms under anaerobic conditions	statistically significant weight gain
